The record followed here is patent publication US20260022096A1, “NOVEL SULFONAMIDES AND THEIR USE AS NEUROPROTECTIVE AND/OR NEURORESTORATIVE AGENTS” (GENECODE, priority 2022, published 2026).

The target of the test is T1, GFRα1-RET (Homo sapiens, UniProt P56159).
T1 construct: expressed in transfected cells; host or cells: MG87 murine fibroblasts, stably transfected
T1 sequence (P56159 25-429 limits assumed): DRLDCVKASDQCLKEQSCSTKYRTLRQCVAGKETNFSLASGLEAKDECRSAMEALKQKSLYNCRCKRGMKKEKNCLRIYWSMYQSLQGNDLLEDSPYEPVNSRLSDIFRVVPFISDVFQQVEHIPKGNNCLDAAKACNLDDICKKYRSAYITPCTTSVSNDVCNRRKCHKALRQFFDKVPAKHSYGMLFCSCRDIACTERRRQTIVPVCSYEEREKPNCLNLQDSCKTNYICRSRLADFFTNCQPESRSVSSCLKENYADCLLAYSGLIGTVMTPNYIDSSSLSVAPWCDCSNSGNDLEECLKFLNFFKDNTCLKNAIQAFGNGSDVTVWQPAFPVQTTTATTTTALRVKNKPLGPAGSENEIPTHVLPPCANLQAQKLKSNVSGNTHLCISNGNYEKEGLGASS
Nature of the test: Elk1 reporter-gene (luciferase) assay in cells expressing GFRα1-RET. As to conditions: MG87 murine fibroblasts stably transfected with PathDetect Elk-1, GFRα1 and RET, 6 concentrations, agonist/activator activity. In kind it is cell-based. Here is the method: For ECso determination, a dose-response test was performed using 6 concentrations of each tested compound. Dose-response curves were fitted using the sigmoidal dose-response (variable slope) analysis in GraphPad Prism program (Graph Pad Inc) and ECso of agonist/activator activity was calculated. Dose-response experiments were all performed in duplicate, two times independently.
Molecule `Cc1cc(S(=O)(=O)N2CCC(c3ccccc3)CC2)cc(N2[C@@H]3CC[C@H]2CN(C(=O)c2ccc(F)cc2Cl)C3)c1O` [compound 090, (2-chloro-4-fluoro-phenyl)-[(1S,5R)-8-[2-hydroxy-3-methyl-5-[(4-phenyl-1-piperidyl)sulfonyl]phenyl]-3,8-diazabicyclo[3.2.1]octan-3-yl]methanone] showed a concentration giving a half-maximal response (EC50) below 1000 nM.

`Cc1cc(S(=O)(=O)N2CCC(c3ccc(F)cc3)CC2)cc(N2[C@@H]3CC[C@H]2CN(C(=O)c2ccc(F)cc2Cl)C3)c1O` [compound 091, (2-chloro-4-fluoro-phenyl)-[(1S,5R)-8-[5-[[4-(4-fluorophenyl)-1-piperidyl]sulfonyl]-2-hydroxy-3-methyl-phenyl]-3,8-diazabicyclo[3.2.1]octan-3-yl]methanone] returned an EC50 below 1000 nM.

On to `Cc1cc(S(=O)(=O)N(C)CC2CC2)cc(N2[C@@H]3CC[C@H]2CN(C(=O)c2ccc(F)cc2Cl)C3)c1O` [compound 092, 3-[(1S,5R)-3-(2-chloro-4-fluoro-benzoyl)-3,8-diazabicyclo[3.2.1]octan-8-yl]-N-(cyclopropylmethyl)-4-hydroxy-N,5-dimethyl-benzenesulfonamide], for which the concentration for a half-maximal effect (EC50) was below 1000 nM.

In turn, `Cc1cc(S(=O)(=O)NC(C)(C)C)cc(N2[C@@H]3CC[C@H]2CN(C(=O)c2ccc(F)cc2Cl)C3)c1O` [compound 093] returned an EC50 below 1000 nM.

Regarding `CCc1cc(S(=O)(=O)N2CCC(c3ccccc3)CC2)cc(N2[C@@H]3CC[C@H]2CN(C(=O)c2ccc(F)cc2Cl)C3)c1O` [compound 094, (2-chloro-4-fluoro-phenyl)-[(1S,5R)-8-[3-ethyl-2-hydroxy-5-[(4-phenyl-1-piperidyl)sulfonyl]phenyl]-3,8-diazabicyclo[3.2.1]octan-3-yl]methanone], the EC50 was below 1000 nM.

Turning to `CC(C)(C)NS(=O)(=O)c1cc(Cl)c(O)c(N2[C@@H]3CC[C@H]2CN(C(=O)c2ccc(F)cc2Cl)C3)c1` [compound 095, N-tert-butyl-3-chloro-5-[(1S,5R)-3-(2-chloro-4-fluoro-benzoyl)-3,8-diazabicyclo[3.2.1]octan-8-yl]-4-hydroxy-benzenesulfonamide], the half-maximal effective concentration (EC50) is below 1000 nM.

Turning to `CN(CC1CC1)S(=O)(=O)c1cc(Cl)c(O)c(N2[C@@H]3CC[C@H]2CN(C(=O)c2ccc(F)cc2Cl)C3)c1` [compound 096, 3-chloro-5-[(1S,5R)-3-(2-chloro-4-fluoro-benzoyl)-3,8-diazabicyclo[3.2.1]octan-8-yl]-N-(cyclopropylmethyl)-4-hydroxy-N-methyl-benzenesulfonamide], the concentration giving a half-maximal response (EC50) was below 1000 nM.

With `O=C(c1ccc(F)cc1Cl)N1C[C@H]2CC[C@@H](C1)N2c1cc(S(=O)(=O)N2CCC(F)CC2)cc(Cl)c1O` [compound 097, (2-chloro-4-fluoro-phenyl)-[(1S,5R)-8-[3-chloro-5-[(4-fluoro-1-piperidyl)sulfonyl]-2-hydroxy-phenyl]-3,8-diazabicyclo[3.2.1]octan-3-yl]methanone], the EC50 is below 1000 nM.

Molecule `O=C(c1ccc(F)cc1Cl)N1C[C@H]2CC[C@@H](C1)N2c1cc(S(=O)(=O)N2CCC(c3ccccc3)CC2)cc(Cl)c1O` [compound 098] returned a concentration for a half-maximal effect (EC50) below 1000 nM.

`O=C(c1ccc(F)cc1Cl)N1C[C@H]2CC[C@@H](C1)N2c1cc(S(=O)(=O)N2CCC(c3ccc(F)cc3)CC2)cc(Cl)c1O` [compound 099, (2-chloro-4-fluoro-phenyl)-[(1S,5R)-8-[3-chloro-5-[[4-(4-fluorophenyl)-1-piperidyl]sulfonyl]-2-hydroxy-phenyl]-3,8-diazabicyclo[3.2.1]octan-3-yl]methanone] showed a half-maximal effective concentration (EC50) below 1000 nM.

`CC(C)NS(=O)(=O)c1cc(Cl)c(O)c(N2[C@@H]3CC[C@H]2CN(C(=O)c2ccc(F)cc2Cl)C3)c1` [compound 100]: the EC50 was below 1000 nM.

Turning to `CC1(NS(=O)(=O)c2cc(Cl)c(O)c(N3[C@@H]4CC[C@H]3CN(C(=O)c3ccc(F)cc3Cl)C4)c2)CC1` [compound 101, 3-chloro-5-[(1S,5R)-3-(2-chloro-4-fluoro-benzoyl)-3,8-diazabicyclo[3.2.1]octan-8-yl]-4-hydroxy-N-(1-methylcyclopropyl) benzenesulfonamide], the EC50 fell in the range of 1000 to 10000 nM.

The molecule `CC1(NS(=O)(=O)c2cc(Cl)c(O)c(N3[C@@H]4CC[C@H]3CN(C(=O)c3ccc(F)cc3Cl)C4)c2)CCC1` [compound 102, 3-chloro-5-[(1S,5R)-3-(2-chloro-4-fluoro-benzoyl)-3,8-diazabicyclo[3.2.1]octan-8-yl]-4-hydroxy-N-(1-methylcyclobutyl) benzenesulfonamide] displayed a 50% effective concentration (EC50) below 1000 nM.

In turn, `CC(C)(C#N)NS(=O)(=O)c1cc(Cl)c(O)c(N2[C@@H]3CC[C@H]2CN(C(=O)c2ccc(F)cc2Cl)C3)c1` [compound 103] returned an EC50 of 1000 to 10000 nM.

Take `CC(C)(NS(=O)(=O)c1cc(Cl)c(O)c(N2[C@@H]3CC[C@H]2CN(C(=O)c2ccc(F)cc2Cl)C3)c1)C(F)(F)F` [compound 105, 3-chloro-5-[(1S,5R)-3-(2-chloro-4-fluoro-benzoyl)-3,8-diazabicyclo[3.2.1]octan-8-yl]-4-hydroxy-N-(2,2,2-trifluoro-1,1-dimethyl-ethyl)benzenesulfonamide]: the concentration giving a half-maximal response (EC50) is below 1000 nM.

In the case of `CN(C1(C)COC1)S(=O)(=O)c1cc(Cl)c(O)c(N2[C@@H]3CC[C@H]2CN(C(=O)c2ccc(F)cc2Cl)C3)c1` [compound 106, 3-chloro-5-[(1S,5R)-3-(2-chloro-4-fluoro-benzoyl)-3,8-diazabicyclo[3.2.1]octan-8-yl]-4-hydroxy-N-methyl-N-(3-methyloxetan-3-yl)benzenesulfonamide], the EC50 is below 1000 nM.

In turn, `CN(C(C)(C)C)S(=O)(=O)c1cc(Cl)c(O)c(N2[C@@H]3CC[C@H]2CN(C(=O)c2ccc(F)cc2Cl)C3)c1` [compound 107] returned an EC50 below 1000 nM.

As for `CC1(NS(=O)(=O)c2cc(Cl)c(O)c(N3[C@@H]4CC[C@H]3CN(C(=O)c3ccc(F)cc3Cl)C4)c2)COC1` [compound 108], the EC50 lay in the range of 1000 to 10000 nM.

`CN(C1COC1)S(=O)(=O)c1cc(Cl)c(O)c(N2[C@@H]3CC[C@H]2CN(C(=O)c2ccc(F)cc2Cl)C3)c1` [compound 109, 3-chloro-5-[(1S,5R)-3-(2-chloro-4-fluoro-benzoyl)-3,8-diazabicyclo[3.2.1]octan-8-yl]-4-hydroxy-N-methyl-N-(oxetan-3-yl)benzenesulfonamide] returned an EC50 of 1000 to 10000 nM.

`C[C@H]1CN(C(=O)c2ccc(F)cc2Cl)CCN1c1cc(S(=O)(=O)NC(C)(C)C)cc(Cl)c1O` [compound 110, N-tert-butyl-3-chloro-5-[(2S)-4-(2-chloro-4-fluoro-benzoyl)-2-methyl-piperazin-1-yl]-4-hydroxy-benzenesulfonamide] displayed an EC50 below 1000 nM.

`C[C@@H]1CN(C(=O)c2ccc(F)cc2Cl)CCN1c1cc(S(=O)(=O)NC(C)(C)C)cc(Cl)c1O` [compound 111, N-tert-butyl-3-chloro-5-[(2R)-4-(2-chloro-4-fluoro-benzoyl)-2-methyl-piperazin-1-yl]-4-hydroxy-benzenesulfonamide] displayed an EC50 below 1000 nM.

For the molecule `CC(C)(C)NS(=O)(=O)c1cc(Cl)c(OCCO)c(N2[C@@H]3CC[C@H]2CN(C(=O)c2ccc(F)cc2Cl)C3)c1` [compound 112], the 50% effective concentration (EC50) is below 1000 nM.

Regarding `COCCOc1c(Cl)cc(S(=O)(=O)NC(C)(C)C)cc1N1[C@@H]2CC[C@H]1CN(C(=O)c1ccc(F)cc1Cl)C2` [compound 113], the EC50 is below 1000 nM.

`COc1c(Cl)cc(S(=O)(=O)NC(C)(C)C)cc1N1[C@@H]2CC[C@H]1CN(C(=O)c1ccc(F)cc1Cl)C2` [compound 114, N-tert-butyl-3-chloro-5-[(1S,5R)-3-(2-chloro-4-fluoro-benzoyl)-3,8-diazabicyclo[3.2.1]octan-8-yl]-4-methoxy-benzenesulfonamide] showed a half-maximal effective concentration (EC50) below 1000 nM.

Molecule `CCCN(C)S(=O)(=O)c1ccc(Cl)c(N2[C@@H]3CC[C@H]2CN(C(=O)c2ccc(F)cc2Cl)C3)c1` [compound 115, 4-chloro-3-[(1S,5R)-3-(2-chloro-4-fluoro-benzoyl)-3,8-diazabicyclo[3.2.1]octan-8-yl]-N-methyl-N-propyl-benzenesulfonamide] registered an EC50 below 1000 nM.

`Cc1ccc(S(=O)(=O)N2CCN(CCc3ccc(F)cc3)CC2)cc1N1[C@@H]2CC[C@H]1CN(C(=O)c1ccc(F)cc1Cl)C2` [compound 116, (2-chloro-4-fluoro-phenyl)-[(1S,5R)-8-[5-[4-[2-(4-fluorophenyl)ethyl]piperazin-1-yl]sulfonyl-2-methyl-phenyl]-3,8-diazabicyclo[3.2.1]octan-3-yl]methanone] had a concentration giving a half-maximal response (EC50) below 1000 nM.

`O=C(c1ccc(F)cc1Cl)N1C[C@H]2CC[C@@H](C1)N2c1cc(S(=O)(=O)N2CCC(c3ccccc3)CC2)cc2c1OCO2` [compound 117, (2-chloro-4-fluoro-phenyl)-[(1S,5R)-8-[6-[(4-phenyl-1-piperidyl)sulfonyl]-1,3-benzodioxol-4-yl]-3,8-diazabicyclo[3.2.1]octan-3-yl]methanone] gave an EC50 below 1000 nM.

Regarding `O=C(c1ccc(F)cc1Cl)N1C[C@H]2CC[C@@H](C1)N2c1cc(S(=O)(=O)N2CCC(c3ccccc3)CC2)cc2c1OCCO2` [compound 118, (2-chloro-4-fluoro-phenyl)-[(1S,5R)-8-[7-[(4-phenyl-1-piperidyl)sulfonyl]-2,3-dihydro-1,4-benzodioxin-5-yl]-3,8-diazabicyclo[3.2.1]octan-3-yl]methanone], the half-maximal effective concentration (EC50) was below 1000 nM.
